Like-named read-outs stand apart in the source and are kept apart here. Non-standard residues stand in square brackets, D forms with d. Residues, ends and D or L forms follow the SMILES beside them. No end group written: not given here.
Legend:
P. aeruginosa = format: cell-based, Pseudomonas aeruginosa (Psae-27853); conditions: 2 h, pH 7.4
Procedure: (§1) Pseudomonas aeruginosa (Psae-27853), Staphylococcus aureus (ATCC-29213), and methicillin-resistant Staphylococcus aureus (MRSA-43300) were used. Bacteria were cultivated in tryptic soy broth (TSB) (Merck, Darmstadt, Germany) at 37 °C and 225rpm or on TSB–agarose plates at 37 °C.
(§2) Bacteria were grown to an OD620 of 0.5, harvested by centrifugation, and washed with tris-glucose buffer (TG buffer: 10 mM tris, 5 mM glucose; pH = 7.4) (P. aeruginosa and S. aureus) or phosphate–glucose buffer (PG buffer: 10 mM K2HPO4, 5 mM glucose; pH = 7.4) (MRSA). Bacteria were adjusted to 2 × 10^6 colony forming units (CFU)/mL and were incubated in 1:2 dilutions for 2 h at 37 °C with CLEC3A-derived and modified CLEC3A-derived peptides in TG buffer or PG buffer. The known AMP LL-37 was used as a positive control, while the CLEC3A-derived peptides ST-16 (Ctrl 1) and DK-29 (Ctrl 2) and untreated bacteria were used as negative controls. The bacteria were then plated onto TSB–agarose plates in previously determined dilutions and cultured overnight at 37 °C. The number of grown colonies was determined with the ImageJ cell counter plugin and is presented as a percentage of the number of grown colonies from the untreated control. The minimal inhibitory concentration (MIC50) was defined as the concentration of antimicrobial peptide where only 50% of bacteria survived. Used peptide concentrations are provided in Supplementary Table S1.
(§3) Statistical analysis of results was performed with Prism 9.3.1 (471) (GraphPad, San Diego, CA, USA). All tables and graphs show calculated averages and standard deviations obtained from three individual experiments. Bar charts of the MIC50 include numerical values with confidence intervals (95%) as the legend. Statistical significance was determined with a paired ANOVA test followed by a Dunnett test and multiple comparisons, comparing each peptide with the respective parent peptide HT-16, HT-47, or WRK-30 as indicated in the figure captions.

S. aureus = format: cell-based, Staphylococcus aureus (ATCC-29213); conditions: 2 h, pH 7.4
Procedure: as §1, §2, §3

MRSA = format: cell-based, methicillin-resistant Staphylococcus aureus (MRSA-43300)
Procedure: as §1, §2, §3

[1] = Biostability assay in murine serum; format: in vitro ADME, murine (C57BL6/N); conditions: 30 µM peptide, room temperature; for Time for which the peptide was detectable in murine serum: pooled murine serum (C57BL6/N), samples 5 min, 10 min, n = 3
Procedure: The peptides (HT-47, WRK-30, and dWRK-30) were mixed with pooled murine serum, obtained from C57BL6/N wildtype mice via cardiac puncture immediately after death by cervical dislocation (the procedure was approved by the local government authority LANUV under permit no. UniKöln_Anzeige§4.22.001), to a final concentration of 30 µM. In parallel, a control with water and pooled murine serum was prepared. Both mixtures were incubated at room temperature, and samples were taken at the time points indicated in Supplementary Table S3. The samples were immediately added to a Novex Tricine SDS Sample Buffer containing a NuPage Sample Reducing Agent and incubated at 85 °C for 2 min. Boiled samples were stored at 4 °C. After the collection of all time points, samples were separated into 10–20% Tricine Gels. Gels with HT-47 and WRK-30 were subsequently transferred onto PVDF membranes (0.2 µm pore size) and immunoblot analysis with 1:200 dilutions of a custom-ordered and affinity-purified rabbit anti-WRK-30 (Eurogentec, Seraing, Belgium) antibody was performed. Gels with dWRK-30 were stained with Coomassie brilliant blue.

[2] = test system: primary human cartilage cells; conditions: cited from earlier work
[3] = test system: NIH3T3 cells (murine fibroblasts); test: Cytotoxicity assay (MTS); format: cell-based
Procedure: NIH3T3 cells (murine fibroblasts), obtained from Prof. Dr. Wielckens, were seeded and precultured overnight. For 24 h incubation with peptides, a density of 1 × 10^4 cells/well and for 96 h incubation with peptides a density of 5 × 10^3 cells/well was used. After preculturing, the culture medium was replaced and cells were incubated with a peptide-containing medium for 24 h and 96 h. Afterward, the peptide-containing medium was removed and cells were washed with PBS before adding CellTiter 96® AQueous One Solution (Promega, Madison, WI, USA) containing 3-(4,5-dimethylthiazol-2-yl)-5-(3-carboxymethoxyphenyl)-2-(4-sulfophenyl)-2H-tetrazolium (MTS) to the culture medium. Cells incubated with peptides for 24 h were incubated with MTS medium for 1 h at 37 °C, and absorbance was measured at 490 nm. Cells incubated with peptides for 96 h were incubated with MTS medium for 2 h at 37 °C before measuring the absorbance. Samples were measured in triplicates, and the cell viability of three individual experiments is presented as a percentage of the measured OD from the untreated control. As further controls, vancomycin (final concentration 7.35 µg/mL), colistin (final concentration 147 µg/mL), and 1% TritonX in culture medium were used. Used peptide concentrations are provided in Supplementary Table S2.

[4] = test system: gram-positive and gram-negative bacteria; conditions: cited from earlier work
Text: We assessed the antimicrobial activity of the modified CLEC3A-derived peptides using an antimicrobial activity assay and determined their MIC50 (Figure 2). We used the well-investigated AMP LL-37 as a positive control. As negative controls, we used ST-16 (Ex1z), which corresponds to HT-16 with an abolished positive charge, and DK-29 (Ex2), which is solely the amphipathic α-helix of HT-47 without the positive charge of the N-terminus. […] First, we investigated the antimicrobial activity of the peptides modified from HT-16: RK-9 and ...

[5] = HT-47: immunoblot (anti-WRK-30), 6 h, 8 h, dWRK-30: SDS-PAGE, Coomassie, 24 h, 96 h

Molecule | P. aeruginosa MIC50 (P. aeruginosa) [µM] | S. aureus MIC50 (S. aureus) [µM] | MRSA MIC50 (MRSA; 2 h, pH 7.4) [µM] | further results
CC[C@@H](C)[C@@H](NC(=O)[C@@H](CCC(=O)O)NC(=O)[C@@H](CCCCN)NC(=O)[C@@H](CC(C)C)NC(=O)[C@@H](C)NC(=O)[C@@H](CC(N)=O)NC(=O)[C@H](NC(=O)[C@@H](CCC(=O)O)NC(=O)[C@H](NC(=O)[C@@H](Cc1c[nH]c2ccccc12)NC(=O)[C@@H](CC(C)C)NC(=O)[C@@H](CCCCN)NC(=O)[C@@H](CCC(=O)O)NC(=O)[C@H](NC(=O)[C@@H](CCC(N)=O)NC(=O)[C@H](NC(=O)[C@@H](CCCCN)NC(=O)[C@@H](CC(C)C)NC(=O)CNC(=O)CNC(=O)CNC(=O)[C@@H](CCCNC(=N)N)NC(=O)[C@H](NC(=O)[C@@H](CCCNC(=N)N)NC(=O)[C@@H](CCCNC(=N)N)NC(=O)[C@@H](CCCCN)NC(=O)[C@@H](CO)NC(=O)[C@@H](Cc1c[nH]cn1)NC(=O)[C@@H](CCCCN)NC(=O)[C@@H](CCCNC(=N)N)NC(=O)[C@H](N)Cc1c[nH]c2ccccc12)C(C)C)[C@H](C)O)[C@H](C)CC)[C@H](C)O)C(C)C)C(=O)O [dWRK-30] (H-[dW][dR][dK][dH][dS][dK][dR][dR][dV][dR]GGG[dL][dK][dT][dQ][dI][dE][dK][dL][dW][dT][dE][dV][dN][dA][dL][dK][dE][dI]-OH) | 1.46 ± 1.55 | 0.66 ± 0.36 | 2.34 ± 0.39 | Time for which the peptide was detectable in murine serum [1, 5]: up to 96 h
RKHSKRRVRGGGLKTQIEKLWTEVNALKEI [RK-30] | 2.64 ± 1.79 | 0.63 ± 0.68 | 4.51 ± 3.81 | 
HTSRLKARKHSKRRVRDKDGDLKTQIEKLWTEVNALKEIQALQTVCL [HT-47] |  |  | 9.88 ± 2.43 | Time for which the peptide was detectable in murine serum [1, 5]: up to 8 h; Detection in murine serum after 24 h (in words) ([1]; pooled murine serum, immunoblot, 24 h (not shown)): disappeared; Toxic effects to primary human cartilage cells [2]: no toxic effects
CC[C@H](C)[C@H](NC(=O)[C@H](CCCCN)NC(=O)[C@H](CCC(=O)O)NC(=O)[C@H](CCCCN)NC(=O)[C@H](CO)NC(=O)[C@H](CCCCN)NC(=O)[C@H](CCCNC(=N)N)NC(=O)[C@H](Cc1ccccc1)NC(=O)[C@H](Cc1ccccc1)NC(=O)[C@H](CC(=O)O)NC(=O)CNC(=O)[C@H](CC(C)C)NC(=O)[C@@H](N)CC(C)C)C(=O)NCC(=O)N[C@@H](CCCCN)C(=O)N[C@@H](CCC(=O)O)C(=O)N[C@@H](Cc1ccccc1)C(=O)N[C@@H](CCCCN)C(=O)N[C@@H](CCCNC(=N)N)C(=O)N[C@H](C(=O)N[C@H](C(=O)N[C@@H](CCC(N)=O)C(=O)N[C@@H](CCCNC(=N)N)C(=O)N[C@H](C(=O)N[C@@H](CCCCN)C(=O)N[C@@H](CC(=O)O)C(=O)N[C@@H](Cc1ccccc1)C(=O)N[C@@H](CC(C)C)C(=O)N[C@@H](CCCNC(=N)N)C(=O)N[C@@H](CC(N)=O)C(=O)N[C@@H](CC(C)C)C(=O)N[C@H](C(=O)N1CCC[C@H]1C(=O)N[C@@H](CCCNC(=N)N)C(=O)N[C@H](C(=O)N[C@@H](CCC(=O)O)C(=O)N[C@@H](CO)C(=O)O)[C@@H](C)O)C(C)C)[C@@H](C)CC)C(C)C)[C@@H](C)CC [LL-37, reference compound] |  |  |  | MRSA MIC50 (MRSA; Figure 2c series, 2 × 10^6 CFU/mL, 2 h at 37 °C in PG buffer pH 7.4, plating and colony count, n = 3, ± confidence interval (95%), na: not applicable): 2.40 ± 0.42 µM; MRSA MIC50 (MRSA; Figure 3c series, 2 × 10^6 CFU/mL, 2 h at 37 °C in PG buffer pH 7.4, n = 3, ± confidence interval (95%), na: not applicable): 2.63 ± 1.21 µM; MRSA MIC50 (MRSA; Figure 8c series, 2 × 10^6 CFU/mL, 2 h at 37 °C in PG buffer pH 7.4, n = 3, ± confidence interval (95%)): 0.52 ± 0.64 µM; Cytotoxicity to NIH3T3 cells, 24 h (in words) ([3]; Figure 5A, 0.3, 3 and 30 µM peptide, 24 h, MTS, absorbance 490 nm, % of untreated control, n = 3): cytotoxic effects
WRKHSKRRVRDKDGDLKTQIEKLWTEVNALKEI [WRK-31] |  | 1.03 ± 0.30 |  | 
HTSRLKARKHSKRRVR [HT-16] | 0.51 ± 0.11 | 0.24 ± 0.13 | 9.25 ± 6.25 | Cytotoxicity towards murine fibroblasts, overall statement [3]: does not show any signs of cytotoxicity; Toxic effects to primary human cartilage cells [2]: no toxic effects
WRKHSKRRVR [WRK-9] | 0.96 ± 0.46 | 0.56 ± 0.72 |  | 
STSQLQAQQSSQQQVQ [ST-16, negative control, corresponds to HT-16 with abolished positive charge] |  |  |  | Antimicrobial activity of negative control peptides (in words) [4]: Neither ST-16 nor DK-29 display any antimicrobial activity
RKHSKRRVR [RK-9] | 4.17 ± 0.69 | 1.62 ± 2.67 |  | 
DKDGDLKTQIEKLWTEVNALKEIQALQTVCL [DK-29, negative control, solely the amphipathic α-helix of HT-47 without the positive charge of the N-terminus] |  |  |  | Antimicrobial activity of negative control peptides (in words) [4]: Neither ST-16 nor DK-29 display any antimicrobial activity
RKHSKRRVRDKDGDLKTQIEKLWTEVNALKEI [RK-31] |  | 4.85 ± 3.10 |  | 
WRKHSKRRVRGGGLKTQIEKLWTEVNALKEI [WRK-30] |  |  |  | Time for which the peptide was detectable in murine serum ([1]; immunoblot (anti-WRK-30), 30 min, 1 h): up to 30 min

Reference: PMC10604565, “Modified CLEC3A-Derived Antimicrobial Peptides Lead to Enhanced Antimicrobial Activity against Drug-Resistant Bacteria” (Antibiotics, 2023)
